In patent US6602487B1, “Methods and tests for producing and for inhibiting coronary artery vasospasms” (Dimera Incorporated, priority 1997, dated 2003):
Several values for one entry are separate records, joined by “and”; a condition that tells them apart may be missing. Identical values can stand only once.

What was measured:
coronary arteries = assay: Drug-induced (S+U) coronary vasospasm in ovariectomized monkeys with E2 plus P or MPA implants; format: in vivo, rhesus monkeys (Macaca mulatta)
Procedure: Twelve rhesus monkeys (Macaca mulatta), aged 8 to 16 years and with weights of 5-7 kg, were ovariectomized at least 3 months prior to beginning of the study and selected randomly for one of two treatments. After documenting the lack of cardiovascular disease or previous exposure to atherogenic diet and after a normal physical examination (including blood chemistry), monkeys received subdermal sylastic implants containing 200 mg of E2. Two weeks later, sylastic implants containing either 400 mg of P or 400 mg of MPA were additionally implanted. All steroids were purchased from Steraloids (Wilton, N.H.). Both estrogen and progestin implants, providing sustained release steroids, remained in place through the catheterization study 6 weeks after beginning the study. Venous blood sample (5 ml) were collected just prior to beginning the study at weekly intervals for measurements of serum levels of E2, P, and MPA. Target levels of 80-160 pg/ml for E2, 4000-8000 pg/ml for P, and 400-800 pg/ml for MPA were based on levels that are effective by reproductive system indices in women and monkeys. Levels were measured in blood serum at catheterization by specific radio-immunoassays.
Angiography was carried out under isoflurane (0.75-1.25%) general anesthesia with 70% O2 and 30% N2O, and body temperature supported with a heating pad. After ketamine sedation (10 mg/kg) and endotracheal tube placement, both femoral arteries were cannulated for simultaneous measurement of systemic blood pressure and coronary catheterization. Intravenous anticoagulation with 1000 units of heparin and fluid replacement with 75-150 ml of lactated Ringer's solution, and if needed 10-50 ml of dextran, to reach a minimum control diastolic blood pressure of 60 mm Hg.
Coronary arteries (left anterior descending or left circumflex) of the monkeys were catheterized and agents injected as described above in Example 1.
Statistical analysis was carried out by Student's t-test (non-paired) or Chi-square, with the p<0.05 level accepted as significant.
All monkeys were treated with estradiol 17β via sylastic implants for the entire treatment period. P or MPA was added during the last 2 weeks as a second sylastic implant, to simulate the luteal phase (P) or hormone replacement therapy (MPA). All steroid implants were left in place, including during angiography. Steroid measurements were made by RIA on serum samples taken just before angiography. Indicates significant differences between P and MPA at p 0.05 (N=6 for each group).

[1] = Progesterone serum levels after topical ProGest cream in menopausal or postmenopausal women; format: in vivo, human; details: topical ProGest cream 2 ml, per patient
Procedure: An open label, controlled study was carried out in six healthy menopausal or postmenopausal women using no over-the-counter or prescription medications, medical foods or dietary supplements which would influence progesterone levels. Menopausal or postmenopausal status was determined by clinical methods. The inclusion criteria were low estrogen levels (less than or equal to 25 picograms per ml); non-use of progesterone for two weeks prior to the beginning of the study, and four weeks if medroxyprogesterone acetate was used; a body mass index less than 30; age between 40 and 65; non-smoker; at least six months after menopause (last bleeding); normal mammogram and pap smear within the past year; and reasonable reliability and client compliance. […] The cream was to be applied in 2 ml amounts on calendar days 2-15 at 8 a.m. Applications were increased to a second 2 ml application at 8 p.m. on calendar days 16-30. In addition, estrogen was applied as a […] patch. The patch used was Vivelle®, Ciba (now Novartis), Summit, N.J. The Vivelle® patch (0.05 mg/day) was applied on calendar days 0, 3, 7, 10, 14, 17, 21, 24 and 28.
Estrogen and progesterone serum levels were determined by chemiluminescence and were conducted on calendar days 2, 9, 16, 23, and 30 at times indicated.

[2] = vaginal administration; cited from earlier work
[3] = minimum, 5-20 minutes after IC S + U

CC(=O)[C@H]1CC[C@H]2[C@@H]3CCC4=CC(=O)CC[C@]4(C)[C@H]3CC[C@]12C [P, progesterone]
diameter in dilator response to low dose ACh (coronary arteries; 0.18 μg ACh IC): 1.20±0.25 mm | Vasospasms (incidence) (coronary arteries; S+U IC challenges, E2 implant plus P or MPA implant, N=6 per group): 0 of 6 and 0/6 | reduction of minimum (φ) from controls after S+U (coronary arteries; S+U stimulation): 67% | Control DBP in mm Hg (coronary arteries; before S + U): 60 ± 5 mm Hg | Control Heart rate in bpm (coronary arteries; before S + U): 130 ± 24 bpm | S + U (φ) minimum (coronary arteries; minimum diameter 3 to 5 minutes after IC S + U): 0.37±0.02 mm | S + U stim DBP in min Hg (coronary arteries; [3]): 30 ± 12 min Hg | S + U stim SBP in mm Hg (coronary arteries; [3]): 51 ± 18 mm Hg | S + U stim heart rate in bpm (coronary arteries; [3]): 66 ± 34 bpm | Control (φ) in mm (coronary arteries; proximal LAD or left circumflex diameter under control conditions, E2+P or E2+MPA group): 1.14±0.21 mm | Progesterone Levels ([1]; Week 0, 1/2 H): 1.6 Nanograms/ml | Progesterone Levels ([1]; Week 0, 1 H): 3.1 Nanograms/ml | Progesterone Levels ([1]; Week 0, 2 H): 2.8 Nanograms/ml | Progesterone Levels ([1]; Week 0, 3 H): 3.5 Nanograms/ml | Progesterone Levels ([1]; Week 0, 4 H): 3.3 Nanograms/ml | Progesterone Levels ([1]; Week 0, 6 H): 4.6 Nanograms/ml | Progesterone Levels ([1]; Week 0, 12 H): 2.4 Nanograms/ml | Progesterone Levels ([1]; Week 1, 0 H): 0.43 Nanograms/ml (2×) and 0.4 Nanograms/ml and 1.5 Nanograms/ml and 1.6 Nanograms/ml and 1.9 Nanograms/ml | Progesterone Levels ([1]; Week 1, 1 H (first of two columns headed 1 H), listed as Progesterone): 1.0 Nanograms/ml and 1.5 Nanograms/ml and 1.3 Nanograms/ml and 1.6 Nanograms/ml and 2.0 Nanograms/ml | Progesterone Levels ([1]; Week 1, 1 H (second of two columns headed 1 H), listed as Progesterone): 0.84 Nanograms/ml and 1.0 Nanograms/ml and 1.4 Nanograms/ml and 1.1 Nanograms/ml and 1.3 Nanograms/ml and 2.7 Nanograms/ml | Progesterone Levels ([1]; Week 1, 2 H): 0.49 Nanograms/ml and 0.82 Nanograms/ml and 0.57 Nanograms/ml and 1.0 Nanograms/ml and 1.2 Nanograms/ml and 1.4 Nanograms/ml | Progesterone Levels ([1]; Week 1, 3 H): 0.91 Nanograms/ml and 0.94 Nanograms/ml and 1.2 Nanograms/ml and 1.7 Nanograms/ml and 1.6 Nanograms/ml | Progesterone Levels ([1]; Week 1, 4 H): 0.96 Nanograms/ml and 1.0 Nanograms/ml and 1.1 Nanograms/ml (2×) and 1.3 Nanograms/ml and 2.3 Nanograms/ml | Progesterone Levels ([1]; Week 1, 6 H): 0.98 Nanograms/ml and 1.3 Nanograms/ml (2×) and 2.0 Nanograms/ml and 1.6 Nanograms/ml (2×) | Progesterone Levels ([1]; Week 1, 12 H): 0.87 Nanograms/ml and 0.96 Nanograms/ml and 1.3 Nanograms/ml and 1.6 Nanograms/ml and 1.8 Nanograms/ml and 2.0 Nanograms/ml | Progesterone Levels ([1]; Week 2, 0 H): 0.93 Nanograms/ml and 1.2 Nanograms/ml and 0.96 Nanograms/ml and 2 Nanograms/ml and 1.7 Nanograms/ml and 3.3 Nanograms/ml | Progesterone Levels ([1]; Week 2, 1 H, listed as Progesterone): 0.82 Nanograms/ml and 0.94 Nanograms/ml and 1.2 Nanograms/ml and 1.3 Nanograms/ml and 14.1 Nanograms/ml and 2.4 Nanograms/ml | Progesterone Levels ([1]; Week 2, 1 H, listed as progesterone): 14.1 Nanograms/ml | Progesterone Levels ([1]; Week 2, 2 H): 1 Nanograms/ml and 0.81 Nanograms/ml and 1.2 Nanograms/ml and 1.7 Nanograms/ml and 3.3 Nanograms/ml and 2.9 Nanograms/ml | Progesterone Levels ([1]; Week 2, 4 H): 1.1 Nanograms/ml and 1.5 Nanograms/ml and 1.2 Nanograms/ml and 2.4 Nanograms/ml and 5 Nanograms/ml and 1.8 Nanograms/ml | Progesterone Levels ([1]; Week 2, 6 H): 1 Nanograms/ml and 1.3 Nanograms/ml and 1.2 Nanograms/ml and 1.5 Nanograms/ml and 3.2 Nanograms/ml and 2.9 Nanograms/ml | Progesterone Levels ([1]; Week 2, 8 H): 0.94 Nanograms/ml and 0.83 Nanograms/ml and 1.2 Nanograms/ml and 1.1 Nanograms/ml and 3 Nanograms/ml and 2.2 Nanograms/ml | Progesterone Levels ([1]; Week 2, 12 H): 0.84 Nanograms/ml and 0.94 Nanograms/ml and 1.2 Nanograms/ml and 2.8 Nanograms/ml and 3.1 Nanograms/ml | Progesterone Levels ([1]; Week 2, 24 H): 0.81 Nanograms/ml and 2 Nanograms/ml and 1.1 Nanograms/ml and 0.98 Nanograms/ml and 2.1 Nanograms/ml | concentration at 1 h ([1]; female, human, topical, Week 1, 1 H): 1 ng/mL | concentration ([1]; female, human, topical, Week 1, 3 H): 1 ng/mL | local concentration of progesterone in the endometrial tissue [2]: ~7 nanograms/ml
